Measured values as given in article PMC5218480 (PLoS ONE, 2017).

Tested on: MV-4-11 cells
Experiment: Gene expression microarray analysis (Affymetrix PrimeView) and GSEA
Assay type: cell-based, human
Design: RFU PODN (11730768_x_at) / Fold change /veh PODN (11730768_x_at) / RFU LINC00158 (11744669_a_at) / Fold change /veh LINC00158 (11744669_a_at) / RFU DUSP10 (11751237_a_at) / Fold change /veh DUSP10 (11751237_a_at) / RFU ID3 (11757404_x_at) / Fold change /veh ID3 (11757404_x_at) / RFU PLEKHG5 (11737974_s_at) / Fold change /veh PLEKHG5 (11737974_s_at) / RFU LRRC4B (11730491_at) / Fold change /veh LRRC4B (11730491_at) / RFU GIMAP4 (11747438_a_at) / Fold change /veh GIMAP4 (11747438_a_at) / RFU KRT8 (11758183_x_at) / Fold change /veh KRT8 (11758183_x_at) / RFU CNN1 (11734310_a_at) / Fold change /veh CNN1 (11734310_a_at) / RFU VPS37D (11726825_at) / Fold change /veh VPS37D (11726825_at) / RFU C10orf10 (11716522_x_at) / Fold change /veh C10orf10 (11716522_x_at) / RFU KIR2DL2 /// KIR2DL4 /// KIR2DL5A /// KIR2DL5B /// KIR2DS1 /// KIR2DS2 /// KIR2DS3 /// KIR2DS4 /// KIR3DL3 /// KIR3DL3 /// KIR3DS1 (11738374_at) / Fold change /veh KIR2DL2 /// KIR2DL4 /// KIR2DL5A /// KIR2DL5B /// KIR2DS1 /// KIR2DS2 /// KIR2DS3 /// KIR2DS4 /// KIR3DL3 /// KIR3DL3 /// KIR3DS1 (11738374_at) / RFU C1QL1 (11718748_at) / Fold change /veh C1QL1 (11718748_at) / RFU TMPRSS4 (11747572_a_at) / Fold change /veh TMPRSS4 (11747572_a_at) / RFU HAMP (11756126_x_at) / Fold change /veh HAMP (11756126_x_at) / RFU RNFT2 (11725882_a_at) / Fold change /veh RNFT2 (11725882_a_at) / RFU NR4A2 (11747474_a_at) / Fold change /veh NR4A2 (11747474_a_at) / RFU ABCC12 (11746883_a_at) / Fold change /veh ABCC12 (11746883_a_at) / RFU TMEM136 (11760407_x_at) / Fold change /veh TMEM136 (11760407_x_at) / RFU CLDN22 /// WWC2 (11732394_at) / Fold change /veh CLDN22 /// WWC2 (11732394_at) / RFU HLA-DPB1 (11760878_x_at) / Fold change /veh HLA-DPB1 (11760878_x_at) / RFU SPINT1 (11716480_a_at) / Fold change /veh SPINT1 (11716480_a_at) / RFU GAP43 (11754022_s_at) / Fold change /veh GAP43 (11754022_s_at) / RFU A4GNT (11735810_at) / Fold change /veh A4GNT (11735810_at) / RFU PRB3 (11715151_x_at) / Fold change /veh PRB3 (11715151_x_at) / RFU TUBB4B (11761932_at) / Fold change /veh TUBB4B (11761932_at) / RFU CAPN14 (11732068_a_at) / Fold change /veh CAPN14 (11732068_a_at) / RFU TMCC2 (11721928_a_at) / Fold change /veh TMCC2 (11721928_a_at) / RFU IRGQ (11745062_a_at) / Fold change /veh IRGQ (11745062_a_at) / RFU FAM174B (11720279_a_at) / Fold change /veh FAM174B (11720279_a_at) / RFU TMPRSS4 (11748680_a_at) / Fold change /veh TMPRSS4 (11748680_a_at) / RFU FAM212B (11763350_a_at) / Fold change /veh FAM212B (11763350_a_at) / RFU PLEKHG5 (11743358_a_at) / Fold change /veh PLEKHG5 (11743358_a_at) / RFU ZSCAN30 (11745921_a_at) / Fold change /veh ZSCAN30 (11745921_a_at) / RFU CMKLR1 (11741424_a_at) / Fold change /veh CMKLR1 (11741424_a_at) / RFU LOC101060620 /// MAPK8IP1 (11723275_at) / Fold change /veh LOC101060620 /// MAPK8IP1 (11723275_at) / RFU SPTSSB (11747773_x_at) / Fold change /veh SPTSSB (11747773_x_at) / RFU PRSS12 (11739890_at) / Fold change /veh PRSS12 (11739890_at) / RFU BIN1 (11741810_x_at) / Fold change /veh BIN1 (11741810_x_at) / RFU WNT11 (11732464_a_at) / Fold change /veh WNT11 (11732464_a_at) / RFU C10orf10 (11716521_a_at) / Fold change /veh C10orf10 (11716521_a_at) / RFU C5orf56 (11738089_at) / Fold change /veh C5orf56 (11738089_at) / RFU CYB561 (11721691_x_at) / Fold change /veh CYB561 (11721691_x_at) / RFU ANKRD19P (11752326_a_at) / Fold change /veh ANKRD19P (11752326_a_at) / RFU OR2T12 /// OR2T33 /// OR2T8 (11738714_s_at) / Fold change /veh OR2T12 /// OR2T33 /// OR2T8 (11738714_s_at) / RFU VCAN (11748164_a_at) / Fold change /veh VCAN (11748164_a_at) / RFU JSRP1 (11732532_at) / Fold change /veh JSRP1 (11732532_at) / RFU KRTAP10-11 (11738290_x_at) / Fold change /veh KRTAP10-11 (11738290_x_at) / RFU MYO3A (11730013_a_at) / Fold change /veh MYO3A (11730013_a_at) / RFU EBF3 (11725865_a_at) / Fold change /veh EBF3 (11725865_a_at) / RFU CAMK2N1 (11719241_x_at) / Fold change /veh CAMK2N1 (11719241_x_at) / RFU C5orf56 (11738088_a_at) / Fold change /veh C5orf56 (11738088_a_at) / RFU OLFML3 (11715873_a_at) / Fold change /veh OLFML3 (11715873_a_at) / RFU LOC100653217 /// NTM (11731650_a_at) / Fold change /veh LOC100653217 /// NTM (11731650_a_at) / RFU MAPK11 (11762145_a_at) / Fold change /veh MAPK11 (11762145_a_at) / RFU FIZ1 (11724087_x_at) / Fold change /veh FIZ1 (11724087_x_at) / RFU OASL (11726364_x_at) / Fold change /veh OASL (11726364_x_at) / RFU SOX15 (11748057_x_at) / Fold change /veh SOX15 (11748057_x_at) / RFU CD79A (11719716_a_at) / Fold change /veh CD79A (11719716_a_at) / RFU HIST1H1D (11736915_at) / Fold change /veh HIST1H1D (11736915_at) / RFU CASKIN2 (11723855_a_at) / Fold change /veh CASKIN2 (11723855_a_at) / RFU LOC730098 (11760151_x_at) / Fold change /veh LOC730098 (11760151_x_at) / RFU OR4N2 (11742367_at) / Fold change /veh OR4N2 (11742367_at) / RFU PRRT2 (11749266_a_at) / Fold change /veh PRRT2 (11749266_a_at) / RFU SNX32 (11753110_a_at) / Fold change /veh SNX32 (11753110_a_at) / RFU CDHR5 (11726645_a_at) / Fold change /veh CDHR5 (11726645_a_at) / RFU RCAN1 (11760418_a_at) / Fold change /veh RCAN1 (11760418_a_at) / RFU FAM167A (11723789_a_at) / Fold change /veh FAM167A (11723789_a_at) / RFU FAM26E (11764081_at) / Fold change /veh FAM26E (11764081_at) / RFU ISYNA1 (11749810_s_at) / Fold change /veh ISYNA1 (11749810_s_at) / RFU ACY1 (11761880_at) / Fold change /veh ACY1 (11761880_at) / RFU 11764098_at / Fold change /veh 11764098_at / RFU SAMD14 (11745864_x_at) / Fold change /veh SAMD14 (11745864_x_at) / RFU NPB (11741838_a_at) / Fold change /veh NPB (11741838_a_at) / RFU TMPRSS6 (11731388_a_at) / Fold change /veh TMPRSS6 (11731388_a_at) / RFU KRTAP10-2 (11738614_at) / Fold change /veh KRTAP10-2 (11738614_at) / RFU ARHGAP8 /// PRR5-ARHGAP8 (11727945_x_at) / Fold change /veh ARHGAP8 /// PRR5-ARHGAP8 (11727945_x_at) / RFU KRTAP5-7 /// NADSYN1 (11734609_at) / Fold change /veh KRTAP5-7 /// NADSYN1 (11734609_at) / RFU RASL12 (11751679_a_at) / Fold change /veh RASL12 (11751679_a_at) / RFU CDKN2B (11736163_a_at) / Fold change /veh CDKN2B (11736163_a_at) / RFU PRF1 (11729649_at) / Fold change /veh PRF1 (11729649_at) / RFU, ZNF638 /// ZNF638-IT1 / Fold change vs veh, ZNF638 /// ZNF638-IT1 / RFU, PANK3 / Fold change vs veh, PANK3 / RFU, SH3YL1 / Fold change vs veh, SH3YL1 / RFU, ZEB2 / Fold change vs veh, ZEB2 / RFU, NRIP1 / Fold change vs veh, NRIP1 / RFU, PTTG1IP / Fold change vs veh, PTTG1IP / RFU, CAPN2 / Fold change vs veh, CAPN2 / RFU, MED14 / Fold change vs veh, MED14 / RFU, SNORA58 / Fold change vs veh, SNORA58 / RFU, C1orf63 / Fold change vs veh, C1orf63 / RFU, LRRFIP1 / Fold change vs veh, LRRFIP1 / RFU, NDUFAF7 / Fold change vs veh, NDUFAF7 / RFU, SLC12A2 / Fold change vs veh, SLC12A2 / RFU, IBTK / Fold change vs veh, IBTK / RFU, ESF1 / Fold change vs veh, ESF1 / Fold change vs veh, TMEM50B / RFU, TAOK1 / Fold change vs veh, TAOK1 / RFU, ACBD3 / Fold change vs veh, ACBD3 / RFU, TMA16 / Fold change vs veh, TMA16 / RFU, RWDD3 / Fold change vs veh, RWDD3 / RFU, BCAT1 / Fold change vs veh, BCAT1 / RFU, EDEM3 / Fold change vs veh, EDEM3 / RFU, TMEM33 / Fold change vs veh, TMEM33 / RFU, WDR75 / Fold change vs veh, WDR75 / RFU, AHCTF1 / Fold change vs veh, AHCTF1 / RFU, TFRC / Fold change vs veh, TFRC / RFU, ZDHHC17 / Fold change vs veh, ZDHHC17 / RFU, NOM1 / Fold change vs veh, NOM1 / RFU, ARL8B / Fold change vs veh, ARL8B / RFU, ZBTB11 / Fold change vs veh, ZBTB11 / RFU, TAMM41 / Fold change vs veh, TAMM41 / RFU, KIAA1704 /// LOC100996395 / Fold change vs veh, KIAA1704 /// LOC100996395 / RFU, ING1 / Fold change vs veh, ING1 / RFU, TRMT61B / Fold change vs veh, TRMT61B / RFU, FUBP3 / Fold change vs veh, FUBP3 / RFU, TP53 / Fold change vs veh, TP53 / RFU, TNKS2 / Fold change vs veh, TNKS2 / RFU, ZFP14 / Fold change vs veh, ZFP14 / RFU, ACTR2 / Fold change vs veh, ACTR2 / RFU, PPP3R1 / Fold change vs veh, PPP3R1 / RFU, PIK3R1 / Fold change vs veh, PIK3R1 / RFU, HNRNPA1 / Fold change vs veh, HNRNPA1 / RFU, RNF170 / Fold change vs veh, RNF170 / RFU, ZNF28 / Fold change vs veh, ZNF28 / RFU, RNGTT / Fold change vs veh, RNGTT / RFU, OGT / Fold change vs veh, OGT / RFU, BRD1 / Fold change vs veh, BRD1 / RFU, MARS / Fold change vs veh, MARS / RFU, ZNF655 / Fold change vs veh, ZNF655 / RFU, FAHD1 / Fold change vs veh, FAHD1 / RFU, BDP1 / Fold change vs veh, BDP1 / RFU, LRRCC1 / Fold change vs veh, LRRCC1 / RFU, ARID1A / Fold change vs veh, ARID1A / RFU, ZNF146 / Fold change vs veh, ZNF146 / RFU, ZNF330 / Fold change vs veh, ZNF330 / RFU, GPN3 / Fold change vs veh, GPN3 / RFU, C9orf123 / Fold change vs veh, C9orf123 / RFU, N4BP2L2 / Fold change vs veh, N4BP2L2 / RFU, ARFIP1 / Fold change vs veh, ARFIP1 / RFU, FAM179B / Fold change vs veh, FAM179B / RFU, BCL10 / Fold change vs veh, BCL10 / RFU, UHRF1BP1L / Fold change vs veh, UHRF1BP1L / RFU, BET1 / Fold change vs veh, BET1 / RFU, CNOT2 / Fold change vs veh, CNOT2 / RFU, ZNF268 / Fold change vs veh, ZNF268 / Fold change vs veh, ZNF507 / RFU, DGCR2 / Fold change vs veh, DGCR2 / RFU, WDSUB1 / Fold change vs veh, WDSUB1 / Fold change vs veh, HSP90B1 /// MIR3652 / RFU, ADSS / Fold change vs veh, ADSS / RFU, GK / Fold change vs veh, GK / RFU, ZNF148 / Fold change vs veh, ZNF148 / RFU, TAF9 / Fold change vs veh, TAF9 / RFU, SLC1A5 / Fold change vs veh, SLC1A5 / RFU, SLMO2 / Fold change vs veh, SLMO2 / RFU, ABCC4 / Fold change vs veh, ABCC4 / RFU, LOC101060439 /// RAP1B / Fold change vs veh, LOC101060439 /// RAP1B / RFU, RFX7 / Fold change vs veh, RFX7 / RFU, GTPBP10 / Fold change vs veh, GTPBP10 / RFU, CNEP1R1 / Fold change vs veh, CNEP1R1 / RFU, BIVM-ERCC5 /// ERCC5 / Fold change vs veh, BIVM-ERCC5 /// ERCC5 / RFU, ILF3 / Fold change vs veh, ILF3 / RFU 11762660_at / Fold change /veh 11762660_at / RFU VCAN (11757783_s_at) / Fold change /veh VCAN (11757783_s_at) / RFU DDX43 (11728927_at) / Fold change /veh DDX43 (11728927_at) / RFU KRT8 (11758188_x_at) / Fold change /veh KRT8 (11758188_x_at) / RFU NKD1 (11759106_at) / Fold change /veh NKD1 (11759106_at) / RFU SRD5A1 (11742802_a_at) / Fold change /veh SRD5A1 (11742802_a_at) / RFU TPSAB1 /// TPSB2 (11721975_s_at) / Fold change /veh TPSAB1 /// TPSB2 (11721975_s_at) / RFU GSTM3 (11746129_a_at) / Fold change /veh GSTM3 (11746129_a_at) / RFU IL23R (11737362_x_at) / Fold change /veh IL23R (11737362_x_at) / RFU TMEM51 (11727254_a_at) / Fold change /veh TMEM51 (11727254_a_at) / RFU PIWIL2 (11732686_x_at) / Fold change /veh PIWIL2 (11732686_x_at) / RFU ORM1 (11744905_x_at) / Fold change /veh ORM1 (11744905_x_at) / RFU CCDC152 (11743942_at) / Fold change /veh CCDC152 (11743942_at) / RFU ECM1 (11717891_a_at) / Fold change /veh ECM1 (11717891_a_at) / RFU IL23R (11748794_a_at) / Fold change /veh IL23R (11748794_a_at) / RFU TNFAIP8L3 (11732012_x_at) / Fold change /veh TNFAIP8L3 (11732012_x_at) / RFU MBOAT4 (11741988_at) / Fold change /veh MBOAT4 (11741988_at) / RFU 11764193_at / Fold change /veh 11764193_at / RFU TMEM53 (11763286_at) / Fold change /veh TMEM53 (11763286_at) / RFU MAGEB2 (11727129_at) / Fold change /veh MAGEB2 (11727129_at) / RFU TMEM200A (11744735_a_at) / Fold change /veh TMEM200A (11744735_a_at) / RFU CCDC152 (11751479_a_at) / Fold change /veh CCDC152 (11751479_a_at) / RFU FAM211A (11726209_a_at) / Fold change /veh FAM211A (11726209_a_at) / RFU RGS16 (11746705_a_at) / Fold change /veh RGS16 (11746705_a_at) / RFU VCAN (11755009_s_at) / Fold change /veh VCAN (11755009_s_at) / RFU RHOB (11743442_s_at) / Fold change /veh RHOB (11743442_s_at) / RFU RGS16 (11720943_a_at) / Fold change /veh RGS16 (11720943_a_at) / RFU RGS16 (11720944_at) / Fold change /veh RGS16 (11720944_at) / RFU, VPS4B / Fold change vs veh, VPS4B / RFU, CREB1 / Fold change vs veh, CREB1 / RFU, DNAJC13 / Fold change vs veh, DNAJC13 / RFU, GNAQ / Fold change vs veh, GNAQ / RFU, CDK5R1 / Fold change vs veh, CDK5R1 / RFU, ZRANB3 / Fold change vs veh, ZRANB3 / RFU, CUL4A / Fold change vs veh, CUL4A / RFU, CCNY / Fold change vs veh, CCNY / RFU, UFL1 / Fold change vs veh, UFL1 / RFU, COG3 / Fold change vs veh, COG3 / RFU, DIAPH2 / Fold change vs veh, DIAPH2 / RFU, SKA2 / Fold change vs veh, SKA2 / RFU, AFF3 / Fold change vs veh, AFF3 / RFU, LMF1 / Fold change vs veh, LMF1 / RFU, IPO11 / Fold change vs veh, IPO11 / RFU, DFFB / Fold change vs veh, DFFB / RFU, FOXP1 / Fold change vs veh, FOXP1 / RFU, CARD8 / Fold change vs veh, CARD8 / RFU, STRN3 / Fold change vs veh, STRN3 / RFU, ADK / Fold change vs veh, ADK / RFU, RASSF2 / Fold change vs veh, RASSF2 / RFU, WIPF1 / Fold change vs veh, WIPF1 / RFU, LARP1B / Fold change vs veh, LARP1B / RFU, RASA1 / Fold change vs veh, RASA1 / RFU, RB1 / Fold change vs veh, RB1 / RFU, PPFIA1 / Fold change vs veh, PPFIA1 / RFU, MAT2A / Fold change vs veh, MAT2A / RFU, CCT5 / Fold change vs veh, CCT5 / RFU, WDR92 / Fold change vs veh, WDR92 / RFU, CUX1 / Fold change vs veh, CUX1 / RFU, TTC7A / Fold change vs veh, TTC7A / RFU, TMEM135 / Fold change vs veh, TMEM135 / RFU, DEPTOR / Fold change vs veh, DEPTOR / RFU, CPM / Fold change vs veh, CPM / RFU, DNAJB6 / Fold change vs veh, DNAJB6 / RFU, CACNA2D3 / Fold change vs veh, CACNA2D3 / RFU, DTX4 / Fold change vs veh, DTX4 / RFU, TFCP2 / Fold change vs veh, TFCP2 / RFU, GMCL1 /// GMCL1P1 / Fold change vs veh, GMCL1 /// GMCL1P1 / RFU, AEBP2 / Fold change vs veh, AEBP2 / RFU, SNHG1 /// SNORD22 /// SNORD25 /// SNORD26 /// SNORD27 /// SNORD28 /// SNORD29 /// SNORD31 / Fold change vs veh, SNHG1 /// SNORD22 /// SNORD25 /// SNORD26 /// SNORD27 /// SNORD28 /// SNORD29 /// SNORD31 / Fold change (Aza/veh), C12orf56 (ProbeSet 11735607_a_at) / Fold change (ACY-1035/veh), C12orf56 (ProbeSet 11735607_a_at) / Fold change (Aza/veh), FGFR1OP (ProbeSet 11751329_s_at) / Fold change (ACY-1035/veh), FGFR1OP (ProbeSet 11751329_s_at) / Fold change (Aza/veh), VPS36 (ProbeSet 11739960_a_at) / Fold change (ACY-1035/veh), VPS36 (ProbeSet 11739960_a_at) / RFU SYPL1 (11715823_x_at) / Fold change /veh SYPL1 (11715823_x_at) / RFU IGFBP7 (11715501_s_at) / Fold change /veh IGFBP7 (11715501_s_at) / RFU REEP3 (11722064_at) / Fold change /veh REEP3 (11722064_at) / RFU IGLL1 (11728026_x_at) / Fold change /veh IGLL1 (11728026_x_at): dose or concentration left out as unconfirmed
Conditions: ProbeSet 11726703_a_at; LIST B

## Nc1ncn([C@@H]2O[C@H](CO)[C@@H](O)[C@H]2O)c(=O)n1 [azacitidine]
  RFU, BCL10: 71.45 RFU
